# Assay results from patent US11046651B2, “Piperazine substituted azapine derivatives and uses thereof” (Alairion, Inc., priority 2019, dated 2021).
# Columns and labels:
# [1] = molecular target: H1 (Homo sapiens (Human), UniProt P35367); assay: H1 binding assay ([3H]pyrilamine, HEK293 stable cell line membranes)
# Method: Example 25. H1 and 5-HT2A Binding Assay Protocol
# (§1) The testing compounds were diluted with DMSO, starting at 2 mM, with 8-points and 5-fold serial dilutions. Ketanserin and Pyrilamine were diluted with DMSO, starting at 0.2 mM, with 8-points and 5-fold serial dilution.
# (§2) 1 μl of a compounds of the present disclosure and either reference compound (Table C) were transferred to assay plates. 1 μl of 0.2 mM Ketanserin or Pyrilamine was transferred to an assay plate according to the plate map for nonspecific binding (Low control: LC). 1 μl of DMSO was transferred to an assay plate according to plate map for total binding (High control: HC).
# (§3) 100 μlof membrane stocks were dispensed into the plates, following the plate map. 100 of radio ligand was added. The plates were sealed and shaken at 300 rpm at room temperature for 1 hour. The Unifilter-96 GF/C filter plates were soaked with 50 of 0.3% PEI per well for at least 0.5 hour at room temperature.
# (§4) When the binding assays were complete, the reaction mixture was filtered through GF/C plates using Perkin Elmer Filtermate Harvester, and then each plate was washed 4 times with cold wash buffer. The filter plates were dried for 1 hour at 50 degrees. After drying, the bottom of the filter plate wells were sealed using Perkin Elmer Unifilter-96 backing seal tape. 50 μl of Perkin Elmer Microscint 20 cocktail was added. The top of the filter plates were sealed with Perkin Elmer TopSeal-A sealing film.
# (§5) ^3H trapped on filters were counted using Perkin Elmer MicroBeta2 Reader. Inhibition constants were calculated using the following equation:
# (§6) [formula] The data was analyzed using Prism 5. The model used was “log(inhibitor) vs. response—Variable slope” to fit the data and calculate IC50. The IC50 was then converted to Ki using following equation: Ki=IC50/(1+L/Kd). L is the radioligand concentration in the reaction system; Kd is the affinity of radioligand to the receptor.
# [2] = molecular target: 5-HT2A (Homo sapiens (Human), UniProt P28223); assay: 5-HT2A binding assay ([3H]-Ketanserin, HEK293 stable cell line membranes)
# Method: H1 and 5-HT2A Binding Assay Protocol
# as §1, §2, §3, §4, §5, §6
# [3] = molecular target: 5-HT2C (Homo sapiens (Human), UniProt P28335); assay: 5-HT2C binding assay ([3H]-Mesulergine, HEK293 membranes); settings: Table L, class symbols
# Method: 5-HT2C Binding Assay Protocol
# The testing compounds were diluted with DMSO, starting at 2 mM, with 8-points and 5-fold serial dilutions.
# 1 μL of a compound of the present disclosure the reference compound (Table J) was transferred to an assay plate. […] 1 μL of DMSO was transferred to an assay plate according to the plate map for total binding (High control: HC).
# as §4, with “Unifilter-96 GF/C filter plates were soaked with 50 μL of 0.3% PEI per well for about 0.5 hours at room temperature. When” for “When”, “through the” for “through”, “GF/C filter” for “GF/C”, “and” for “and then”, “50° C.” for “50 degrees.”, “μL” for “μl”
# as §5
# [formula] The data was analyzed using Prism 5. The model used was “log(inhibitor) vs. response—Variable slope” to fit the data and calculate IC50. The IC50 was then converted to Ki using the following equation: Ki=IC50/(1+L/Kd), wherein L is the radioligand concentration in the reaction system; Kd is the affinity of radioligand to the receptor.
# Chain of 5-HT2C (P28335 33-458): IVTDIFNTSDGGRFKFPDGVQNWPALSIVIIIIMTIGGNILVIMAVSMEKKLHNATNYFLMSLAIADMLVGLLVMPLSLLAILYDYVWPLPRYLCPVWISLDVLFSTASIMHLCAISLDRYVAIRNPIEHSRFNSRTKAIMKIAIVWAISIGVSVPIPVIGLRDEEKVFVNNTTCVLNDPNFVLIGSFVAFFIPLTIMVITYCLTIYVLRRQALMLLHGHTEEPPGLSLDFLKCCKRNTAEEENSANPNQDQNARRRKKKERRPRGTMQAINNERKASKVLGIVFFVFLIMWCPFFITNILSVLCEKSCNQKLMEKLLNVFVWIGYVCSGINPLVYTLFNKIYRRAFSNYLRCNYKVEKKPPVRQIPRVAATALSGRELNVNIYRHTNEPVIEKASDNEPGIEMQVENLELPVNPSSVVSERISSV
# Chain of 5-HT2A (P28223 whole entry, species assumed): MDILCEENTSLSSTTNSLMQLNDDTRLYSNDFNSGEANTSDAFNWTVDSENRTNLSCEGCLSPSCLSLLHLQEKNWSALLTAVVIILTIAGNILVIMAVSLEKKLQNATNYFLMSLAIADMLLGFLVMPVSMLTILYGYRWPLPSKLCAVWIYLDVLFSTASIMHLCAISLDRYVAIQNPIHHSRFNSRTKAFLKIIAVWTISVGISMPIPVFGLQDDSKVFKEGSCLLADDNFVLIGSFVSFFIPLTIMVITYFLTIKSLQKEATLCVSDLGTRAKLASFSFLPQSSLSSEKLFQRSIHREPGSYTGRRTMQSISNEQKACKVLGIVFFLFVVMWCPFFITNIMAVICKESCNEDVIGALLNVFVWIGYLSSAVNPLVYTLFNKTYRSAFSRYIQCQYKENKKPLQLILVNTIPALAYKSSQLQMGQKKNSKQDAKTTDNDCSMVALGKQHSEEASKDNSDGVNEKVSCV
# Chain of H1 (P35367 whole entry): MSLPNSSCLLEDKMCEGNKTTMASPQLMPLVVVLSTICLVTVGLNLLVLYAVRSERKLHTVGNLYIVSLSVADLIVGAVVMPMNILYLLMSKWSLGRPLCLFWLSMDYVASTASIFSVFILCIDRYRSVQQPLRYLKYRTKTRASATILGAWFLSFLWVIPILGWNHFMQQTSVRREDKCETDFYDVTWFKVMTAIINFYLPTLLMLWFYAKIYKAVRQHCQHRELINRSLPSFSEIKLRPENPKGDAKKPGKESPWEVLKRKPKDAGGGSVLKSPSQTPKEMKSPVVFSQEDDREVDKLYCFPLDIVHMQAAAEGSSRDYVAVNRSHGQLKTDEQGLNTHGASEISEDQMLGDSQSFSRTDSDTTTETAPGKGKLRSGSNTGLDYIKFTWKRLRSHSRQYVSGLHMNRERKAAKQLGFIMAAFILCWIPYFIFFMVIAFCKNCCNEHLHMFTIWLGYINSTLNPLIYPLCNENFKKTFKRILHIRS
SMILES,Ki ([1]; numeric values),Ki ([2]; numeric values),"Ki ([1]; Table E, class symbols)","Ki ([2]; Table F, class symbols)",Ki [3]
"CC(CN1CCN(C2=Nc3ccccc3Cc3ccccc32)CC1)C(=O)O (stereo not shown) [A-1, 3-(4-(11H-dibenzo[b,e]azepin-6-yl)piperazin-1-yl)-2-methylpropanoic acid, reference compound]",104 nM,1380 nM,,,
"Cc1ccc2c(c1)Oc1cc(C(F)F)ccc1N=C2N1CCN(CC(C)(C)C(=O)O)CC1 [Compound No. 16, 3-(4-(7-(difluoromethyl)-3-methyldibenzo[b,f][1,4]oxazepin-11-yl)piperazin-1-yl)-2,2-dimethylpropanoic acid]",,,> 50 nM,> 50 nM,
"Cc1ccc2c(c1)Oc1cc(Cl)ccc1N=C2N1CCN(CC2(C(=O)O)CC2)CC1 [Compound No. 13, 1-((4-(7-chloro-3-methyldibenzo[b,f][1,4]oxazepin-11-yl)piperazin-1-yl)methyl)cyclopropane-1-carboxylic acid]",,,25 to 50 nM,1 to 25 nM,
"CCc1ccc2c(c1)Oc1cc(Cl)ccc1N=C2N1CCN(CC(C)(C)C(=O)O)CC1 [Compound No. 3, 3-(4-(7-chloro-3-ethyldibenzo[b,f][1,4]oxazepin-11-yl)piperazin-1-yl)-2,2-dimethylpropanoic acid]",,,25 to 50 nM,1 to 25 nM,
"Cc1ccc2c(c1)Oc1cc(F)ccc1N=C2N1CCN(CC2(C(=O)O)CC2)CC1 [Compound No. 18, 1-((4-(7-fluoro-3-methyldibenzo[b,f][1,4]oxazepin-11-yl)piperazin-1-yl)methyl)cyclopropane-1-carboxylic acid]",,,1 to 25 nM,25 to 50 nM,
"Cc1ccc2c(c1)Oc1cc(Cl)ccc1N=C2N1CCN(CC(C)(C)C(=O)O)CC1 [Compound No. 1, 3-(4-(7-chloro-3-methyldibenzo[b,f][1,4]oxazepin-11-yl)piperazin-1-yl)-2,2-dimethylpropanoic acid]",,,1 to 25 nM,1 to 25 nM,> 500 nM
"CSc1ccc2c(c1)Oc1cc(Cl)ccc1N=C2N1CCN(CC(C)(C)C(=O)O)CC1 [Compound No. 4, 3-(4-(7-chloro-3-(methylthio)dibenzo[b,f][1,4]oxazepin-11-yl)piperazin-1-yl)-2,2-dimethylpropanoic acid]",,,1 to 25 nM,1 to 25 nM,
"Cc1ccc2c(c1)Oc1cc(F)ccc1C(N1CCN(CC3(C(=O)O)CC3)CC1)=N2 [Compound No. 19, 1-((4-(3-fluoro-7-methyldibenzo[b,f][1,4]oxazepin-11-yl)piperazin-1-yl)methyl)cyclopropane-1-carboxylic acid]",,,25 to 50 nM,1 to 25 nM,
"Cc1ccc2c(c1)Oc1cc(C)ccc1C(N1CCN(CC3(C(=O)O)CC3)CC1)=N2 [Compound No. 9, 1-((4-(3,7-dimethyldibenzo[b,f][1,4]oxazepin-11-yl)piperazin-1-yl)methyl)cyclopropane-1-carboxylic acid]",,,> 50 nM,1 to 25 nM,
"Cc1ccc2c(c1)Cc1ccccc1C(N1CCN(CC(C)(C)C(=O)O)CC1)=N2 [Compound No. 38, 2,2-dimethyl-3-(4-(2-methyl-11H-dibenzo[b,e]azepin-6-yl)piperazin-1-yl)propanoic acid]",,,> 50 nM,> 50 nM,< 100 nM
"O=C(O)C1(CN2CCN(C3=Nc4ccccc4Cc4ccccc43)CC2)CC1 [Compound No. 12, 1-((4-(11H-dibenzo[b,e]azepin-6-yl)piperazin-1-yl)methyl)cyclopropane-1-carboxylic acid]",,,1 to 25 nM,> 50 nM,
"CCCc1ccc2c(c1)Oc1cc(Cl)ccc1N=C2N1CCN(CC(C)(C)C(=O)O)CC1 [Compound No. 5, 3-(4-(7-chloro-3-propyldibenzo[b,f][1,4]oxazepin-11-yl)piperazin-1-yl)-2,2-dimethylpropanoic acid]",,,25 to 50 nM,1 to 25 nM,
"Cc1ccc2c(c1)C(N1CCN(CC(C)(C)C(=O)O)CC1)=Nc1cc(Cl)ccc1O2 [compound 34, 3-(4-(8-chloro-2-methyldibenzo[b,f][1,4]oxazepin-11-yl)piperazin-1-yl)-2,2-dimethylpropanoic acid]",,,,,< 100 nM
"O=C(O)C1(CN2CCN(C3=Nc4ccc(F)cc4Oc4cc(F)ccc43)CC2)CC1 [Compound No. 10, 1-((4-(3,7-difluorodibenzo[b,f][1,4]oxazepin-11-yl)piperazin-1-yl)methyl)cyclopropane-1-carboxylic acid]",,,1 to 25 nM,1 to 25 nM,
"Cc1ccc2c(c1)Oc1ccc(Cl)cc1N=C2N1CCN(CC(C)(C)C(=O)O)CC1 [compound 29, 3-(4-(8-chloro-3-methyldibenzo[b,f][1,4]oxazepin-11-yl)piperazin-1-yl)-2,2-dimethylpropanoic acid]",,,,,< 100 nM
"Cc1ccc2c(c1)Oc1cc(F)ccc1C(N1CCN(CC(C)(C)C(=O)O)CC1)=N2 [Compound No. 17, 3-(4-(3-fluoro-7-methyldibenzo[b,f][1,4]oxazepin-11-yl)piperazin-1-yl)-2,2-dimethylpropanoic acid]",,,1 to 25 nM,1 to 25 nM,
"Cc1ccc2c(c1)N=C(N1CCN(CC(C)(C)C(=O)O)CC1)c1ccc(C(F)F)cc1O2 [compound 33, 3-(4-(3-(difluoromethyl)-8-methyldibenzo[b,f][1,4]oxazepin-11-yl)piperazin-1-yl)-2,2-dimethylpropanoic acid]",,,,,< 100 nM
"CC(C)(CN1CCN(C2=Nc3ccccc3Oc3cccc(F)c32)CC1)C(=O)O [Compound No. 39, 3-(4-(1-fluorodibenzo[b,f][1,4]oxazepin-11-yl)piperazin-1-yl)-2,2-dimethylpropanoic acid]",,,> 50 nM,> 50 nM,< 100 nM
"COc1ccc2c(c1)C(N1CCN(CC(C)(C)C(=O)O)CC1)=Nc1cc(Cl)ccc1O2 [compound 35, 3-(4-(8-chloro-2-methoxydibenzo[b,f][1,4]oxazepin-11-yl)piperazin-1-yl)-2,2-dimethylpropanoic acid]",,,,,100 to 500 nM
"CC(C)c1ccc2c(c1)Oc1cc(Cl)ccc1N=C2N1CCN(CC(C)(C)C(=O)O)CC1 [Compound No. 2, 3-(4-(7-chloro-3-isopropyldibenzo[b,f][1,4]oxazepin-11-yl)piperazin-1-yl)-2,2-dimethylpropanoic acid]",,,25 to 50 nM,1 to 25 nM,
"COc1ccc2c(c1)Oc1cc(Cl)ccc1N=C2N1CCN(CC(C)(C)C(=O)O)CC1 [Compound No. 20, 3-(4-(7-chloro-3-methoxydibenzo[b,f][1,4]oxazepin-11-yl)piperazin-1-yl)-2,2-dimethylpropanoic acid]",,,> 50 nM,25 to 50 nM,
"CC(C)(CN1CCN(C2=Nc3cc(F)ccc3Oc3cc(F)ccc32)CC1)C(=O)O [compound 31, 3-(4-(3,8-difluorodibenzo[b,f][1,4]oxazepin-11-yl)piperazin-1-yl)-2,2-dimethylpropanoic acid]",,,,,< 100 nM
"CC(C)(CN1CCN(C2=Nc3ccc(F)cc3Oc3cc(F)ccc32)CC1)C(=O)O [Compound No. 11, 3-(4-(3,7-difluorodibenzo[b,f][1,4]oxazepin-11-yl)piperazin-1-yl)-2,2-dimethylpropanoic acid]",,,> 50 nM,1 to 25 nM,
"Cc1ccc2c(c1)Oc1ccc(F)cc1N=C2N1CCN(CC(C)(C)C(=O)O)CC1 [compound 28, 3-(4-(8-fluoro-3-methyldibenzo[b,f][1,4]oxazepin-11-yl)piperazin-1-yl)-2,2-dimethylpropanoic acid]",,,,,100 to 500 nM
"CCc1ccc2c(c1)Oc1cc(C)ccc1N=C2N1CCN(CC2(C(=O)O)CC2)CC1 [Compound No. 14, 1-((4-(3-ethyl-7-methyldibenzo[b,f][1,4]oxazepin-11-yl)piperazin-1-yl)methyl)cyclopropane-1-carboxylic acid]",,,> 50 nM,1 to 25 nM,
"COc1ccc2c(c1)Oc1cc(F)ccc1N=C2N1CCN(CC(C)(C)C(=O)O)CC1 [Compound No. 21, 3-(4-(7-fluoro-3-methoxydibenzo[b,f][1,4]oxazepin-11-yl)piperazin-1-yl)-2,2-dimethylpropanoic acid]",,,> 50 nM,25 to 50 nM,
